Assay results: patent US8012975B2, “Antitumoral analogs of ET-743” (Pharma Mar, S.A., priority 2000, dated 2011)
Where two headings read alike, the source gives them in different places.

Assays:
[1] = tested on: OSA-FH
[2] = tested on: MX-1; assay: Cytotoxic activity (M) panel, Breast MX-1; settings: Homo sapiens, MX1, read-out: CYTOTOXIC ACTIVITY (M) MX-1
[3] = tested on: HT-29; assay: Cytotoxic activity (M) panel, Colon HT-29; settings: Homo sapiens, HT-29, read-out: CYTOTOXIC ACTIVITY (M) HT-29
[4] = tested on: 786-O; assay: Cytotoxic activity (M) panel, Renal 786-O; settings: Homo sapiens, 786-0, read-out: CYTOTOXIC ACTIVITY (M) 786-O
[5] = tested on: 5637; assay: Cytotoxic activity (M) panel, Bladder 5637; settings: read-out: CYTOTOXIC ACTIVITY (M) 5637
[6] = tested on: PC3; assay: Cytotoxic activity (M) panel, Prostate PC3; settings: Homo sapiens, PC-3, read-out: CYTOTOXIC ACTIVITY (M) PC3
[7] = tested on: NCI-H187; assay: Cytotoxic activity (M) panel, SCL NCI-H187; settings: Homo sapiens, NCI-H187, read-out: CYTOTOXIC ACTIVITY (M) NCI-H187
[8] = tested on: FADU; assay: Cytotoxic activity (M) panel, Pharnynx FADU; settings: Homo sapiens, read-out: CYTOTOXIC ACTIVITY (M) FADU
[9] = tested on: Hs746t; assay: Cytotoxic activity (M) panel, Gastric Hs746t; settings: Homo sapiens, read-out: CYTOTOXIC ACTIVITY (M) Hs746t
[10] = tested on: SK-HEP-1; assay: Cytotoxic activity (M) panel, Liver SK-HEP-1; settings: Homo sapiens, SK-HEP1, read-out: CYTOTOXIC ACTIVITY (M) SK-HEP-1
[11] = tested on: PANC-1; assay: Cytotoxic activity (M) panel, Pancreas PANC-1; settings: Homo sapiens, PANC-1, read-out: CYTOTOXIC ACTIVITY (M) PANC-1
[12] = tested on: MEL-28; assay: Cytotoxic activity (M) panel, Melanoma Mel-28; settings: Homo sapiens, SK-MEL-28, read-out: CYTOTOXIC ACTIVITY (M) Mel-28
[13] = tested on: Y-79; assay: Cytotoxic activity (M) panel, Retinoblastoma Y-79; settings: Homo sapiens, Y79, read-out: CYTOTOXIC ACTIVITY (M) Y-79
[14] = tested on: CHSA; assay: Cytotoxic activity (M) panel, Chondrosarcoma CHSA; settings: read-out: CYTOTOXIC ACTIVITY (M) CHSA
[15] = tested on: 5637
[16] = tested on: OSA-FH; assay: Cytotoxic activity (M) panel, Osteosarcoma OSA-FH; settings: read-out: CYTOTOXIC ACTIVITY (M) OSA-FH
[17] = tested on: PC3
[18] = tested on: SK-OV-3; assay: Cytotoxic activity (M) panel, Ovary SK-OV-3; settings: Homo sapiens, SK-OV-3, read-out: CYTOTOXIC ACTIVITY (M) SK-OV-3
[19] = tested on: LNCAP; assay: Cytotoxic activity (M) panel, Prostate LNCAP; settings: Homo sapiens, read-out: CYTOTOXIC ACTIVITY (M) LNCAP
[20] = tested on: SK-HEP-1
[21] = tested on: A549; assay: Cytotoxic activity (M) panel, NSCL A549; settings: Homo sapiens, A549, read-out: CYTOTOXIC ACTIVITY (M) A549
[22] = tested on: DU-145; assay: Cytotoxic activity (M) panel, Prostate DU-145; settings: Homo sapiens, DU-145, read-out: CYTOTOXIC ACTIVITY (M) DU-145
[23] = tested on: SW-694; assay: Cytotoxic activity (M) panel, Fibrosarcoma SW-694; settings: read-out: CYTOTOXIC ACTIVITY (M) SW-694
[24] = tested on: MX-1
[25] = tested on: A549
[26] = tested on: NCI-H187
[27] = tested on: Y-79

COc1c(C)cc2c(c1O)[C@@H]1C3Cc4c(OC(C)=O)c(C)c5c(c4[C@H](CNC(=O)[C@H](C)NC(=O)Cc4ccccc4)N3[C@@H](O)[C@H](C2)N1C)OCO5 (stereo partly shown) [drawing 216]
CYTOTOXIC ACTIVITY (M) OSA-FH [1]: 1.35 to 08 M
IC50 [2]: 2.85e-06 M
IC50 [3]: 1.2e-10 M
IC50 [4]: 2.9e-09 M
IC50 [5]: 7.85e-10 M
IC50 [6]: 9.34e-09 M
IC50 [7]: 2.07e-12 M
IC50 [8]: 3.77e-08 M
IC50 [9]: 6.25e-09 M
IC50 [10]: 9.03e-10 M
IC50 [11]: 2.58e-09 M
IC50 [12]: 1.13e-09 M
IC50 [13]: 1.31e-11 M
IC50 [14]: 2.25e-09 M

COc1c(C)cc2c(c1O)[C@@H]1C3Cc4c(OC(C)=O)c(C)c5c(c4[C@H](CNC(=O)Cc4ccccc4)N3[C@@H](O)[C@H](C2)N1C)OCO5 (stereo partly shown) [drawing 217]
CYTOTOXIC ACTIVITY (M) 5637 [15]: 3.18 to 09 M
IC50 [4]: 1e-08 M
IC50 [8]: 1.14e-09 M
IC50 [9]: 1.37e-07 M
IC50 [10]: 9.5e-09 M
IC50 [11]: 1.03e-08 M
IC50 [12]: 4.48e-09 M
IC50 [13]: 7.78e-09 M
IC50 [14]: 1.09e-08 M
IC50 [16]: 9.5e-09 M

CCCC(=O)NC[C@H]1c2c(c(OC(C)=O)c(C)c3c2OCO3)CC2[C@H]3c4c(cc(C)c(OC)c4O)C[C@@H]([C@H](O)N21)N3C (stereo partly shown) [drawing 225]
CYTOTOXIC ACTIVITY (M) PC3 [17]: 1.46-08 M
IC50 [2]: 2.5e-06 M
IC50 [4]: 6.55e-09 M
IC50 [5]: 2.81e-09 M
IC50 [7]: 3.98e-11 M
IC50 [18]: 2.21e-07 M
IC50 [8]: 7.94e-09 M
IC50 [9]: 2.97e-08 M
IC50 [10]: 5.07e-09 M
IC50 [19]: 5.39e-09 M
IC50 [11]: 2.9e-09 M
IC50 [12]: 3.05e-08 M
IC50 [13]: 3.14e-09 M
IC50 [14]: 1.73e-08 M
IC50 [16]: 8.56e-08 M

COc1c(C)cc2c(c1O)[C@@H]1C3Cc4c(OC(C)=O)c(C)c5c(c4[C@H](COC(=O)/C=C/c4cccc(C(F)(F)F)c4)N3[C@@H](O)[C@H](C2)N1C)OCO5 (stereo partly shown) [drawing 233]
CYTOTOXIC ACTIVITY (M) SK-HEP-1 [20]: 1.63 to 08 M
IC50 [21]: 2.81e-06 M
IC50 [2]: 2.81e-08 M
IC50 [3]: 4.08e-07 M
IC50 [4]: 1.46e-08 M
IC50 [5]: 1.14e-08 M
IC50 [6]: 7.88e-08 M
IC50 [7]: 8.02e-10 M
IC50 [18]: 7.03e-06 M
IC50 [8]: 4.59e-07 M
IC50 [9]: 3.57e-08 M
IC50 [19]: 5.98e-07 M
IC50 [11]: 1.03e-08 M
IC50 [22]: 7.03e-08 M
IC50 [12]: 1.76e-08 M
IC50 [13]: 8.85e-10 M
IC50 [23]: 3.38e-06 M
IC50 [14]: 2.53e-08 M
IC50 [16]: 6.34e-08 M

COc1c(C)cc2c(c1O)[C@@H]1C3Cc4c(OC(C)=O)c(C)c5c(c4[C@H](COC(=O)/C=C/c4ccccc4)N3[C@@H](O)[C@H](C2)N1C)OCO5 (stereo partly shown) [drawing 234]
IC50 [24]: 0.000725 nM
CYTOTOXIC ACTIVITY (M) A549 [25]: 1.56 to 05 M
IC50 [26]: 0.0778 pM
IC50 [27]: 0.0778 pM
IC50 [3]: 2.96e-07 M
IC50 [4]: 5.26e-12 M
IC50 [5]: 1.71e-08 M
IC50 [18]: 7.78e-08 M
IC50 [8]: 2.46e-08 M
IC50 [9]: 1.24e-09 M
IC50 [10]: 1.94e-09 M
IC50 [19]: 6.83e-08 M
IC50 [11]: 9.47e-09 M
IC50 [22]: 1.56e-06 M
IC50 [12]: 5.89e-08 M
IC50 [23]: 6.69e-06 M
IC50 [14]: 4.49e-08 M
IC50 [16]: 5.26e-07 M
